# Measurements reported in patent US20130164325A1, “CERAMIDE-LIKE GLYCOLIPID-ASSOCIATED BACTERIAL VACCINES AND USES THEREOF” (Albert Einstein College of Medicine of Yeshiva University, priority 2010, published 2013).
# System: mouse splenocytes
# Assay: Activation of mouse splenocytes with glycolipid-treated BMDCs, IFNγ production
# Format: cell-based
# Conditions: free glycolipid, compared to vehicle control (FIG. 5B)
smiles,measurement,value
"CCCCCCCCCCCCCCCCCCCCCCCCCC(=O)N[C@@H](CO[C@H]1O[C@H](CO)[C@H](O)[C@H](O)[C@H]1O)[C@H](O)[C@H](O)CCCCCCCCCCCCCC [KRN7000, (2S,3S,4R)-1-O-(α-D-galactopyranosyl)-N-hexacosanoyl-2-amino-1,3,4-octadecanetriol]",IFNγ production,induced IFNγ production
